PMC5388777 (Frontiers in Psychiatry, 2017)
Several values for one entry are separate records, joined by “and”; a condition that tells them apart may be missing. Equal values may be shown once.

Legend:
male ICR mice [1] = assay: Global activity during CPP conditioning; format: in vivo; details: s.c.; for Global activity versus vehicle controls: morphine 15 mg/kg (first injection), PPL-101 and PPL-103 3.0 mg/kg (first and third injections)
male ICR mice [2] = assay: Conditioned place preference (CPP) paradigm; format: in vivo; details: s.c., three drug sessions; morphine 15 mg/kg, PPL-101 1-3 mg/kg, PPL-103 0.3-3 mg/kg
male Sprague-Dawley rats [3] = assay: Intravenous self-administration (FR-1 and PR schedules)
male ICR mice [4] = assay: Tail flick assay (thermal nociception); format: in vivo; details: for Antinociception (%MPE) versus vehicle: 60-min post-injection, s.c., PPL-101 0.3-10 mg/kg, PPL-103 0.3-3 mg/kg; for Tail flick latency after antagonist alone: given 24 h before vehicle, JDTic 10 mg/kg, beta-FNA 40 mg/kg s.c.
male Sprague-Dawley rats [5] = assay: Plantar test (paw withdrawal latency); format: in vivo; details: U-69,593 0.3 mg/kg
mu opioid receptor = biological target: T1, mu opioid receptor (Homo sapiens, UniProt P35372); format: biochemical
T1 construct: expressed in transfected cells; membranes prepared

kappa opioid receptor [6] = biological target: T2, kappa opioid receptor (Homo sapiens, UniProt P41145); assay: biochemical
T2 construct: expressed in transfected cells; membranes prepared

delta opioid receptor [7] = biological target: T3, delta opioid receptor (Homo sapiens, UniProt P41143); assay: biochemical; details: Receptor binding Ki
T3 construct: expressed in transfected cells; membranes prepared

delta opioid receptor [8] = biological target: T3, delta opioid receptor; assay: [35S]GTPγS binding, CHO cell membranes; format: biochemical; details: for Delta % Stim.: [35S]GTPγS binding, mean ± SEM
kappa opioid receptor [9] = biological target: T2, kappa opioid receptor; assay: biochemical; details: Receptor binding Ki
non-human primates = details: ref Harris et al. unpublished observation; cited from earlier work

T3 sequence (P41143 whole entry): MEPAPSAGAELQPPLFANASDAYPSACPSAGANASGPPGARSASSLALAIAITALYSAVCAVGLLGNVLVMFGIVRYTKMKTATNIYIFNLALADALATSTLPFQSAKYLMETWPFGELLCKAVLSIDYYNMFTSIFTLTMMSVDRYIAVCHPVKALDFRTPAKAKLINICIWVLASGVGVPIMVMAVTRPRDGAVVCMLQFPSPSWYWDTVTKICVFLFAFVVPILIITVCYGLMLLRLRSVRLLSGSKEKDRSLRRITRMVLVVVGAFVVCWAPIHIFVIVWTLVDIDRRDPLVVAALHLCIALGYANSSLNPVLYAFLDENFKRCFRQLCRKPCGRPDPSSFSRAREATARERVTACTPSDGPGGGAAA
T2 sequence (P41145 whole entry): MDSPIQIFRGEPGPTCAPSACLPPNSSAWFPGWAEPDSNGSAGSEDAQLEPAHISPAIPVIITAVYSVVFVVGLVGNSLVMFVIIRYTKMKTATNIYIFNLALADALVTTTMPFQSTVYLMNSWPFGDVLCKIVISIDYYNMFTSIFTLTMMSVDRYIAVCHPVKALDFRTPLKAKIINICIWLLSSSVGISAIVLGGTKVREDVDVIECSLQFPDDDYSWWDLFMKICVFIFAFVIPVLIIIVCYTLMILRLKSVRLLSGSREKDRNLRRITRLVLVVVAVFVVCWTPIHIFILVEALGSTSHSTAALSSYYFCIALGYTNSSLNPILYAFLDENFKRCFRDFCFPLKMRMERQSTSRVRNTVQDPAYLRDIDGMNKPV
T1 sequence (P35372 whole entry): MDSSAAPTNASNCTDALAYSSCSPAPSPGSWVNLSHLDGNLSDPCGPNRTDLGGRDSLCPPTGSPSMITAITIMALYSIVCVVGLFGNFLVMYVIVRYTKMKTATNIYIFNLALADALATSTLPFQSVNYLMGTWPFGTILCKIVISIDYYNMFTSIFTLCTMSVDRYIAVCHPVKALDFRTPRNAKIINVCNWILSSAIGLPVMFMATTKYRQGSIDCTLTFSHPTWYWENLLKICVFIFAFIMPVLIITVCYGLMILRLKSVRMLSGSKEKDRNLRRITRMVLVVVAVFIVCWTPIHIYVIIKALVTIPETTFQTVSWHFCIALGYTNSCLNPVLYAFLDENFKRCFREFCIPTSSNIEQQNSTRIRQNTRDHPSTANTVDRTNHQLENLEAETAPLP

Compound	Global activity versus vehicle controls (male ICR mice [1])	Acquisition of CPP (difference score) versus vehicle controls (male ICR mice [2])	Antinociception (%MPE) versus vehicle (male ICR mice [4]; morphine 15 mg/kg)	Tail flick latency after antagonist alone (male ICR mice [4])	Mu % Stim. (mu opioid receptor) [%]	Kappa % Stim. (kappa opioid receptor [6]) [%]	Ki (delta opioid receptor [7]) [nM]	Delta % Stim. (delta opioid receptor [8]) [%]	Ki (kappa opioid receptor [9]) [nM]	other results
CN1CC[C@]23c4c5ccc(O)c4O[C@H]2[C@@H](O)C=C[C@H]3[C@H]1C5 [Morphine, reference compound]	increase in global activity after the first drug injection relative to vehicle controls	exhibited a significant CPP	produced the maximal effect in increase in tail flick relative to vehicle controls	–	–	–	–	–	–	Global activity after third versus first drug injection (male ICR mice [1]; morphine 15 mg/kg, PPL-101 3 mg/kg): increase in activity following the third drug injection relative to the first drug injection; Effect of JDTic on self-administration of the compound (male Sprague-Dawley rats [3]; 100 µg/kg/infusion, FR1TO20, JDTic 10 mg/kg i.p., seven sessions versus baseline): no significant effect of JDTic on morphine self-administration; Average responses on the morphine-associated lever (male Sprague-Dawley rats [3]; 100 µg/kg/infusion, last 3 days prior to PPL-101 self-administration, mean ± SEM): 29.0 ± 5.8 and 27.2 ± 6.1 and 32.2 ± 12.6; Time course of antinociception (%MPE) versus vehicle (male ICR mice [4]; 0.5, 1, 2, 4 h post-injection, PPL-101 0.3-10 mg/kg s.c., morphine 15 mg/kg): anticipated increase in %MPE at all the time points compared to vehicle controls; Effect of JDTic pretreatment on the compound's antinociception (male ICR mice [4]; JDTic 10 mg/kg s.c. 24 h before): not altered by the kappa antagonist JDTic; Effect of beta-FNA pretreatment on the compound's antinociception (male ICR mice [4]; beta-FNA 40 mg/kg s.c. 24 h before): completely inhibited by the mu opioid antagonist beta-FNA
CC(C)[C@@H](CN1CC[C@@](C)(c2cccc(O)c2)[C@@H](C)C1)NC(=O)[C@H]1Cc2ccc(O)cc2CN1 [JDTic, (3R)-7-hydroxy-N-[(1S)-1-[[(3R,4R)-4-(3-hydroxyphenyl)-3,4-dimethyl-1-piperidinyl]methyl]-2-methylpropyl]-1,2,3,4-tetrahydro-3-isoquinoline-carboxamide]	–	–	–	have no effect on tail flick latency in mice	–	–	–	–	–	Blockade of U-69,593-induced antinociception (male Sprague-Dawley rats [5]; JDTic 10 mg/kg single dose): able to block the antinociceptive effect U-69,593; Antinociception (paw withdrawal latency) (male Sprague-Dawley rats [5]; JDTic 10 mg/kg single treatment one week before): by itself did not
C[C@@H](NC(=O)[C@@H](N)Cc1ccc(O)cc1)C(=O)NCC(=O)N(C)[C@@H](Cc1ccccc1)C(=O)NCCO [DAMGO, [D-Ala2, N-MePhe4, Gly-ol]-enkephalin, reference compound]	–	–	–	–	100	62 ± 21.0	–	–	–	–
C[C@H]1[C@H]2Cc3ccc(O)cc3[C@]1(C)CCN2CC1CC1 [Cyclazocine, cycloproplymethyl-benzomorphan, reference compound]	–	–	–	–	33 ± 18	80 ± 9	0.8 ± 0.05	82 ± 9	0.1 ± 0.02	–
COC(=O)C=CC(=O)NC1CCC2(O)C3Cc4ccc(O)c5c4C2(CCN3CC2CC2)C1O5.Cl (stereo not drawn) [beta-FNA, beta-funaltrexamine HCl, reference compound]	–	–	–	have no effect on tail flick latency in mice	–	–	–	–	–	–
CC(C1CC1)N1CCC23CCCCC2C1Cc1ccc(O)cc13 (stereo not drawn) [PPL-103, α-methyl-cyclopropylmethyl-morphinan]	decreases in global activity relative to vehicle controls following the first and third drug injections	did not reveal any significant difference	potent antinociception at all doses tested	–	–	39.8 ± 3.9	0.29 ± 0.03	41.7 ± 5.0	2.47 ± 0.105	Number of infusions under PR schedule (male Sprague-Dawley rats [3]; 30-100 µg/kg/infusion i.v., versus morphine 100 µg/kg/infusion): significantly decreased compared to the morphine group; Self-administration under FR-1 schedule when substituted for morphine (male Sprague-Dawley rats [3]; 30 and 100 µg/kg/infusion i.v., versus morphine 100 µg/kg/infusion): markedly decreased as compared to responses for morphine across all test sessions; Substitution for morphine in single-dose suppression test (non-human primates): substituted for morphine; Dose giving maximal antinociception equivalent to morphine, as fraction of morphine's dose (male ICR mice [4]; mice): 1/10; EC50 (delta opioid receptor [8]): 2.99 ± 0.92 nM; EC50 (kappa opioid receptor [6]): 9.01 ± 2.64 nM
